Measured values taken from PubChem BioAssay AID1918957 (Molecular Pharmacology Branch, DTP, NCI, 2023).

Tested on: NCI-H1876 complex spheroid viability
Assay: Anticancer human tumor NCI-H1876 cell line growth inhibition [LSD1];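 note: spheroids exposed to compounds for one week before readout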;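 for viability, T/C: 100% = DMSO vehicle-treated spheroids so lower means fewer viable cells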
Settings: for IC50: curve of first compound; for viability, T/C: stronger effect = lower value
Outline: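 Complex spheroids of tumor cells with HUVEC and human MSCs, exposed to iadademstat combined with other agents. Each agent tested in half-log steps from near clinical Cmax (else 10 microM top), DMSO ≤0.25%.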

[1] = second compound 0.1 µM, first compound 0.0316 µM
[2] = second compound 0.1 µM, first compound 0.1 µM
[3] = second compound 0.1 µM, first compound 0.316 µM
[4] = second compound 0.1 µM, first compound 1 µM
[5] = second compound 0.1 µM, first compound 3.16 µM
[6] = second compound 0.1 µM, first compound 10 µM
[7] = second compound 0.316 µM, first compound 0.0316 µM
[8] = second compound 0.316 µM, first compound 0.1 µM
[9] = second compound 0.316 µM, first compound 0.316 µM
[10] = second compound 0.316 µM, first compound 1 µM
[11] = second compound 0.316 µM, first compound 3.16 µM
[12] = second compound 0.316 µM, first compound 10 µM
[13] = second compound 1 µM, first compound 0.0316 µM
[14] = second compound 1 µM, first compound 0.1 µM
[15] = second compound 1 µM, first compound 0.316 µM
[16] = second compound 1 µM, first compound 1 µM
[17] = second compound 1 µM, first compound 3.16 µM
[18] = second compound 1 µM, first compound 10 µM
[19] = second compound 3.16 µM, first compound 0.0316 µM
[20] = second compound 3.16 µM, first compound 0.1 µM
[21] = second compound 3.16 µM, first compound 0.316 µM
[22] = second compound 3.16 µM, first compound 1 µM
[23] = second compound 3.16 µM, first compound 3.16 µM
[24] = second compound 3.16 µM, first compound 10 µM
[25] = second compound 10 µM, first compound 0.0316 µM
[26] = second compound 10 µM, first compound 0.1 µM
[27] = second compound 10 µM, first compound 0.316 µM
[28] = second compound 10 µM, first compound 1 µM
[29] = second compound 10 µM, first compound 3.16 µM
[30] = second compound 10 µM, first compound 10 µM
[31] = second compound 0.1 µM, first compound 0.00949 µM
[32] = second compound 0.1 µM, first compound 0.03 µM
[33] = second compound 0.1 µM, first compound 0.0949 µM
[34] = second compound 0.1 µM, first compound 0.3 µM
[35] = second compound 0.316 µM, first compound 0.00949 µM
[36] = second compound 0.316 µM, first compound 0.03 µM
[37] = second compound 0.316 µM, first compound 0.0949 µM
[38] = second compound 0.316 µM, first compound 0.3 µM
[39] = second compound 1 µM, first compound 0.00949 µM
[40] = second compound 1 µM, first compound 0.03 µM
[41] = second compound 1 µM, first compound 0.0949 µM
[42] = second compound 1 µM, first compound 0.3 µM
[43] = second compound 3.16 µM, first compound 0.00949 µM
[44] = second compound 3.16 µM, first compound 0.03 µM
[45] = second compound 3.16 µM, first compound 0.0949 µM
[46] = second compound 3.16 µM, first compound 0.3 µM
[47] = second compound 10 µM, first compound 0.00949 µM
[48] = second compound 10 µM, first compound 0.03 µM
[49] = second compound 10 µM, first compound 0.0949 µM
[50] = second compound 10 µM, first compound 0.3 µM

**Q.** With CC1(C)CCC(CN2CCN(c3ccc(C(=O)NS(=O)(=O)c4ccc(NCC5CCOCC5)c([N+](=O)[O-])c4)c(Oc4cnc5[nH]ccc5c4)c3)CC2)=C(c2ccc(Cl)cc2)C1 + NC1CC1c1ccc(-c2cccc(O)c2)cc1 as the compound, how does the IC50 (second compound 0.1 µM) read?
**A.** 2080 nM

**Q.** And the IC50 (second compound 0.316 µM)?
**A.** 2080 nM

**Q.** What about the IC50 (second compound 1 µM) of the same compound?
**A.** 2170 nM

**Q.** And the IC50 (second compound 3.16 µM)?
**A.** 2060 nM

**Q.** What about the IC50 (second compound 10 µM) of the same compound?
**A.** 1920 nM

**Q.** And the viability, T/C [1]?
**A.** 111%

**Q.** And the viability, T/C [2]?
**A.** 110%

**Q.** And the viability, T/C [3]?
**A.** 117%

**Q.** And the viability, T/C [4]?
**A.** 108%

**Q.** And the viability, T/C [5]?
**A.** 16.6%

**Q.** What about the viability, T/C [6] of the same compound?
**A.** 6.77%

**Q.** And the viability, T/C [7]?
**A.** 97.1%

**Q.** And the viability, T/C [8]?
**A.** 85.9%

**Q.** And the viability, T/C [9]?
**A.** 122%

**Q.** And the viability, T/C [10]?
**A.** 110%

**Q.** And the viability, T/C [11]?
**A.** 19.3%

**Q.** What about the viability, T/C [12] of the same compound?
**A.** 7.99%

**Q.** What about the viability, T/C [13] of the same compound?
**A.** 99.5%

**Q.** And the viability, T/C [14]?
**A.** 103%

**Q.** What about the viability, T/C [15] of the same compound?
**A.** 105%

**Q.** What about the viability, T/C [16] of the same compound?
**A.** 111%

**Q.** What about the viability, T/C [17] of the same compound?
**A.** 23.3%

**Q.** What about the viability, T/C [18] of the same compound?
**A.** 7.5%

**Q.** And the viability, T/C [19]?
**A.** 113%

**Q.** And the viability, T/C [20]?
**A.** 122%

**Q.** And the viability, T/C [21]?
**A.** 105%

**Q.** What about the viability, T/C [22] of the same compound?
**A.** 99.8%

**Q.** What about the viability, T/C [23] of the same compound?
**A.** 20.6%

**Q.** And the viability, T/C [24]?
**A.** 8.68%

**Q.** What about the viability, T/C [25] of the same compound?
**A.** 112%

**Q.** What about the viability, T/C [26] of the same compound?
**A.** 120%

**Q.** What about the viability, T/C [27] of the same compound?
**A.** 110%

**Q.** What about the viability, T/C [28] of the same compound?
**A.** 89.2%

**Q.** What about the viability, T/C [29] of the same compound?
**A.** 19.8%

**Q.** What about the viability, T/C [30] of the same compound?
**A.** 6.33%

**Q.** Which results are given for CC1COCCN1c1cc(C2(S(C)(=N)=O)CC2)nc(-c2ccnc3[nH]ccc23)n1 (stereo not given) + NC1CC1c1ccc(-c2cccc(O)c2)cc1?
**A.** IC50 (second compound 0.1 µM): 6860 nM; IC50 (second compound 0.316 µM): 6540 nM; IC50 (second compound 1 µM): 6880 nM; IC50 (second compound 3.16 µM): 6240 nM; IC50 (second compound 10 µM): 5610 nM; viability, T/C [1]: 110%; viability, T/C [2]: 114%; viability, T/C [3]: 112%; viability, T/C [4]: 111%; viability, T/C [5]: 94.4%; viability, T/C [6]: 28.4%; viability, T/C [7]: 119%; viability, T/C [8]: 111%; viability, T/C [9]: 113%; viability, T/C [10]: 118%; viability, T/C [11]: 88.5%; viability, T/C [12]: 27.5%; viability, T/C [13]: 124%; viability, T/C [14]: 119%; viability, T/C [15]: 118%; viability, T/C [16]: 111%; viability, T/C [17]: 96.1%; viability, T/C [18]: 28%; viability, T/C [19]: 114%; viability, T/C [20]: 126%; viability, T/C [21]: 120%; viability, T/C [22]: 111%; viability, T/C [23]: 78.4%; viability, T/C [24]: 30.3%; viability, T/C [25]: 112%; viability, T/C [26]: 112%; viability, T/C [27]: 114%; viability, T/C [28]: 99.8%; viability, T/C [29]: 70.8%; viability, T/C [30]: 29.4%

**Q.** Which results are given for CCN(c1cc(-c2ccc(CN3CCOCC3)cc2)cc(C(=O)NCc2c(C)cc(C)[nH]c2=O)c1C)C1CCOCC1 + NC1CC1c1ccc(-c2cccc(O)c2)cc1?
**A.** IC50 (second compound 0.1 µM): > 3000 nM; IC50 (second compound 0.316 µM): > 3000 nM; IC50 (second compound 1 µM): > 3000 nM; IC50 (second compound 3.16 µM): > 3000 nM; IC50 (second compound 10 µM): > 3000 nM; viability, T/C [31]: 110%; viability, T/C [32]: 109%; viability, T/C [33]: 110%; viability, T/C [34]: 99.6%; viability, T/C (second compound 0.1 µM, first compound 0.949 µM): 86.6%; viability, T/C (second compound 0.1 µM, first compound 3 µM): 54.8%; viability, T/C [35]: 102%; viability, T/C [36]: 106%; viability, T/C [37]: 102%; viability, T/C [38]: 94.1%; viability, T/C (second compound 0.316 µM, first compound 0.949 µM): 77.3%; viability, T/C (second compound 0.316 µM, first compound 3 µM): 54.1%; viability, T/C [39]: 111%; viability, T/C [40]: 112%; viability, T/C [41]: 104%; viability, T/C [42]: 102%; viability, T/C (second compound 1 µM, first compound 0.949 µM): 88.2%; viability, T/C (second compound 1 µM, first compound 3 µM): 60%; viability, T/C [43]: 109%; viability, T/C [44]: 108%; viability, T/C [45]: 107%; viability, T/C [46]: 97.5%; viability, T/C (second compound 3.16 µM, first compound 0.949 µM): 83.8%; viability, T/C (second compound 3.16 µM, first compound 3 µM): 57.8%; viability, T/C [47]: 106%; viability, T/C [48]: 99.9%; viability, T/C [49]: 111%; viability, T/C [50]: 100%; viability, T/C (second compound 10 µM, first compound 0.949 µM): 79.9%; viability, T/C (second compound 10 µM, first compound 3 µM): 55.3%

**Q.** For Nc1ncn(C2CC(O)C(CO)S2)c(=O)n1 (stereo not given) + NC1CC1c1ccc(-c2cccc(O)c2)cc1, which IC50 (second compound 0.1 µM) is on record?
**A.** > 300 nM

**Q.** And the IC50 (second compound 0.316 µM)?
**A.** > 300 nM

**Q.** And the IC50 (second compound 1 µM)?
**A.** > 300 nM

**Q.** And the IC50 (second compound 3.16 µM)?
**A.** 289 nM

**Q.** And the IC50 (second compound 10 µM)?
**A.** > 300 nM

**Q.** And the viability, T/C (second compound 0.1 µM, first compound 0.000949 µM)?
**A.** 115%

**Q.** And the viability, T/C (second compound 0.1 µM, first compound 0.003 µM)?
**A.** 111%

**Q.** What about the viability, T/C [31] of the same compound?
**A.** 99.4%

**Q.** And the viability, T/C [32]?
**A.** 91.2%

**Q.** What about the viability, T/C [33] of the same compound?
**A.** 71%

**Q.** And the viability, T/C [34]?
**A.** 51.3%

**Q.** What about the viability, T/C (second compound 0.316 µM, first compound 0.000949 µM) of the same compound?
**A.** 120%

**Q.** What about the viability, T/C (second compound 0.316 µM, first compound 0.003 µM) of the same compound?
**A.** 110%

**Q.** What about the viability, T/C [35] of the same compound?
**A.** 99.7%

**Q.** And the viability, T/C [36]?
**A.** 86.4%

**Q.** What about the viability, T/C [37] of the same compound?
**A.** 73.1%

**Q.** What about the viability, T/C [38] of the same compound?
**A.** 54.4%

**Q.** What about the viability, T/C (second compound 1 µM, first compound 0.000949 µM) of the same compound?
**A.** 110%

**Q.** What about the viability, T/C (second compound 1 µM, first compound 0.003 µM) of the same compound?
**A.** 106%

**Q.** What about the viability, T/C [39] of the same compound?
**A.** 103%

**Q.** And the viability, T/C [40]?
**A.** 90.1%

**Q.** What about the viability, T/C [41] of the same compound?
**A.** 79.4%

**Q.** What about the viability, T/C [42] of the same compound?
**A.** 54.8%

**Q.** And the viability, T/C (second compound 3.16 µM, first compound 0.000949 µM)?
**A.** 106%

**Q.** And the viability, T/C (second compound 3.16 µM, first compound 0.003 µM)?
**A.** 103%

**Q.** And the viability, T/C [43]?
**A.** 104%

**Q.** What about the viability, T/C [44] of the same compound?
**A.** 89%

**Q.** What about the viability, T/C [45] of the same compound?
**A.** 72.1%

**Q.** And the viability, T/C [46]?
**A.** 49.1%

**Q.** What about the viability, T/C (second compound 10 µM, first compound 0.000949 µM) of the same compound?
**A.** 107%

**Q.** What about the viability, T/C (second compound 10 µM, first compound 0.003 µM) of the same compound?
**A.** 100%

**Q.** What about the viability, T/C [47] of the same compound?
**A.** 97.2%

**Q.** And the viability, T/C [48]?
**A.** 96.3%

**Q.** And the viability, T/C [49]?
**A.** 69.2%

**Q.** What about the viability, T/C [50] of the same compound?
**A.** 50.4%
